Measured values as given in US9204653B2, “5-fluoro pyrimidine derivatives” (DOW AGROSCIENCES LLC, priority 2008, dated 2015).
Where two headings read alike, the source gives them in different places.

System: Mycosphaerella graminicola; Anamorph: Septoria tritici; Bayer Code SEPTTR
Experiment: Leaf blotch of wheat, foliar fungicide treatment, one day protectant (1DP) or three day curative (3DC)
Type: in vivo, Septoria tritici on wheat plants (variety Yuma)
Conditions: Zymoseptoria tritici, percent control rating; for pest or weed control at 100 ppm: read-out: SEPTTR 3DC 100 ppm
[1] = 24 h, one day protectant (1DP), 25 ppm (first 1DP column), read-out: SETTTR 1DP 25 ppm
[2] = 24 h, one day protectant (1DP), 25 ppm as printed (second 1DP column), read-out: SETTTR 1DP 25 ppm
[3] = 72 h, three day curative (3DC), 25 ppm, read-out: SEPTTR 3DC 25 ppm

Structure (SMILES)	pest or weed control at 25 ppm [1] [%]	pest or weed control at 25 ppm [2] [%]	pest or weed control at 25 ppm [3] [%]	pest or weed control at 100 ppm (72 h, three day curative (3DC)) [%]
O=CNc1nc(OCc2ccccc2)ncc1F [Compound 961, N-(2-(Benzyloxy)-5-fluoropyrimidin-4-yl)formamide]	76 to 100	76 to 100	76 to 100	76 to 100
Nc1nc(OCOC(=O)C2CCCC2)ncc1F [Compound 962, (4-amino-5-fluoropyrimidin-2-yloxy)methyl cyclopentanecarboxylate]	76 to 100	76 to 100	76 to 100	76 to 100
N#CNc1nc(OCc2ccccc2)ncc1F [Compound 963, 2-Benzyloxy-5-fluoro-pyrimidin-4-yl-cyanamide]	0 to 25	0 to 25	26 to 50	0 to 25
N=C(NO)Nc1nc(OCc2ccccc2)ncc1F [Compound 964, 1-[2-(Benzyloxy)-5-fluoropyrimidin-4-yl]-3-hydroxyguanidine]	0 to 25	0 to 25	0 to 25	26 to 50
O=C(Nc1nc(O)ncc1F)c1ccc(Cl)nc1 [Compound 965]	26 to 50	76 to 100	26 to 50	26 to 50
O=C(Nc1ccccc1Cl)Nc1nc(O)ncc1F [Compound 966]	26 to 50	51 to 75	51 to 75	51 to 75
O=C(Nc1ccccc1)Nc1nc(O)ncc1F [Compound 967]	26 to 50	26 to 50	51 to 75	51 to 75
Cc1ccc(NC(=O)Nc2nc(O)ncc2F)cc1 [Compound 968]	51 to 75	51 to 75	51 to 75	51 to 75
O=C(NCc1ccccc1)Nc1nc(O)ncc1F [Compound 969]	26 to 50	26 to 50	26 to 50	51 to 75
O=C(NCc1ccccc1F)Nc1nc(O)ncc1F [Compound 970]	26 to 50	51 to 75	26 to 50	26 to 50
CC(C)NC(=O)Nc1nc(O)ncc1F [Compound 971]	26 to 50	26 to 50	51 to 75	76 to 100
CCCCCNC(=O)Nc1nc(O)ncc1F [Compound 972]	51 to 75	76 to 100	51 to 75	51 to 75
O=C(Nc1nc(O)ncc1F)NC1CCCC1 [Compound 973]	26 to 50	26 to 50	76 to 100	51 to 75
O=C(/C=C/c1ccccc1)Nc1nc(O)ncc1F [Compound 974]	51 to 75	76 to 100	51 to 75	26 to 50
CC(C)(C)NC(=O)Nc1nc(O)ncc1F [Compound 975]	0 to 25	0 to 25	0 to 25	0 to 25
CCOC(=O)CNC(=O)Nc1nc(O)ncc1F [Compound 976]	0 to 25	0 to 25	0 to 25	0 to 25
Cc1coc(C)c1C(=O)Nc1nc(O)ncc1F [Compound 977]	0 to 25	51 to 75	0 to 25	76 to 100
Cn1ncc(C(=O)Nc2nc(O)ncc2F)c1Cl [Compound 978]	0 to 25	0 to 25	0 to 25	0 to 25

Structure (SMILES)	pest or weed control at 25 ppm [1] [%]	pest or weed control at 25 ppm [2] [%]	pest or weed control at 25 ppm [3] [%]	pest or weed control at 100 ppm (72 h, three day curative (3DC)) [%]
O=C(Nc1nc(O)ncc1F)c1ccsc1 [Compound 979]	0 to 25	26 to 50	0 to 25	51 to 75
CCCNC(=O)Nc1nc(O)ncc1F [Compound 980]	0 to 25	0 to 25	0 to 25	0 to 25
O=C(NCc1ccco1)Nc1nc(O)ncc1F [Compound 981]	0 to 25	0 to 25	0 to 25	0 to 25
CCCCCOC(=O)Nc1nc(OCc2ccccc2)ncc1F [Compound 982]	76 to 100	76 to 100	76 to 100	76 to 100
C=CCOC(=O)Nc1nc(OCc2ccccc2)ncc1F [Compound 983]	76 to 100	76 to 100	76 to 100	76 to 100
CCCCCOC(=O)Nc1nc(OCc2ccc(F)cc2)ncc1F [Compound 984]	76 to 100	76 to 100	76 to 100	76 to 100
C=CCOC(=O)Nc1nc(OCc2ccc(F)cc2)ncc1F [Compound 985]	76 to 100	76 to 100	76 to 100	76 to 100
CCCCCOC(=O)Nc1nc(OCc2ccc(C)cc2)ncc1F [Compound 986]	76 to 100	76 to 100	76 to 100	76 to 100
C=CCOC(=O)Nc1nc(OCc2ccc(C)cc2)ncc1F [Compound 987]	76 to 100	76 to 100	76 to 100	76 to 100
CCCCCOC(=O)Nc1nc(OCc2cccc(OC)c2)ncc1F [Compound 988]	76 to 100	76 to 100	76 to 100	76 to 100
C=CCOC(=O)Nc1nc(OCc2cccc(OC)c2)ncc1F [Compound 989]	76 to 100	76 to 100	51 to 75	76 to 100
C/C(=N\Oc1nc(OCc2ccccc2)ncc1F)c1cnc(OCC(F)(F)F)nc1 [Compound 990]	0 to 25	0 to 25	0 to 25	0 to 25
Fc1cnc(OCc2ccccc2)nc1/N=N/c1ccccc1 [Compound 991]	0 to 25	0 to 25	0 to 25	0 to 25
Cc1ccc(COc2ncc(F)c(/N=N/c3ccccc3)n2)cc1 [Compound 992]	0 to 25	0 to 25	0 to 25	26 to 50
Fc1cnc(OCc2ccccc2)nc1/N=N/c1ccccn1 [Compound 993]	0 to 25	26 to 50	0 to 25	51 to 75
Cc1ccc(COc2ncc(F)c(NS(=O)(=O)c3ccccc3)n2)cc1 [Compound 994]	0 to 25	26 to 50	0 to 25	0 to 25
CCc1ccccc1NNc1nc(OCc2ccc(C)cc2)ncc1F [Compound 995]	0 to 25	26 to 50	0 to 25	0 to 25
COc1ccccc1NNc1nc(OCc2ccc(C)cc2)ncc1F [Compound 996]	26 to 50	51 to 75	26 to 50	51 to 75
